Like-named read-outs stand apart in the source and are kept apart here.
Key:
[1] = molecular target: various enzymes (Homo sapiens, UniProt P45984); conditions: JNK2; 1 uM
Protocol: (§2) Ambit profiling from Eurofins (formerly Discoverx) was conducted in accordance with the manufacturer's instructions.

[2] = molecular target: various enzymes (Homo sapiens, UniProt O94804); conditions: LOK; 1 uM
Protocol: as §2

[3] = molecular target: T1, various enzymes (Homo sapiens, UniProt Q9H093); conditions: SNARK; 1 uM
T1 sequence (Q9H093 1-628): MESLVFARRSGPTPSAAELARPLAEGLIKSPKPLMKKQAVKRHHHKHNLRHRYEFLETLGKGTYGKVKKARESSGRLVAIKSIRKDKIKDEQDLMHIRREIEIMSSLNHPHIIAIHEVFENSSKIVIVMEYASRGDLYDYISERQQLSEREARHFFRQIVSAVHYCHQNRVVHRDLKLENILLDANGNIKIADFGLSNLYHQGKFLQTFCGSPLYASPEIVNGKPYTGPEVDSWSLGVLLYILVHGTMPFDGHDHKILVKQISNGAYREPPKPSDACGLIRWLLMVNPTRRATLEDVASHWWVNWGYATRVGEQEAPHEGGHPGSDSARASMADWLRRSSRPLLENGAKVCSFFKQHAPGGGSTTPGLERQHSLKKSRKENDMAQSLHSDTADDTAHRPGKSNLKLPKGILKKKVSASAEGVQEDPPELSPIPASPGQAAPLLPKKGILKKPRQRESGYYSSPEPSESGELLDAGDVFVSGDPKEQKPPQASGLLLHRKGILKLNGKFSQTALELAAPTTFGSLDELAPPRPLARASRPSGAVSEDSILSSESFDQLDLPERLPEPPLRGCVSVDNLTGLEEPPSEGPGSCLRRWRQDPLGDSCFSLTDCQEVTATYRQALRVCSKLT
Protocol: as §2

[4] = molecular target: various enzymes (Homo sapiens, UniProt O94921); conditions: PFTK1; 1 uM
Protocol: as §2

[5] = molecular target: various enzymes (Homo sapiens, UniProt O15075); conditions: DCAMKL1; 1 uM
Protocol: as §2

[6] = molecular target: various enzymes (Homo sapiens, UniProt Q13705); conditions: ACVR2B; 1 uM
Protocol: as §2

[7] = molecular target: various enzymes (Homo sapiens, UniProt P00533, DEL747-749/A750P); format: binding; design: other: EGFR(L747-E749del, A750); 1 uM; other: EGFR(L747-E749del, A750P); other: compound 1 uM
Protocol: (§1) Ambit profiling was conducted in accordance with the manufacturer's instructions.

[8] = molecular target: T2, various enzymes (Homo sapiens, UniProt Q99640); format: binding; conditions: compound 1 uM
T2 sequence (Q99640 1-499): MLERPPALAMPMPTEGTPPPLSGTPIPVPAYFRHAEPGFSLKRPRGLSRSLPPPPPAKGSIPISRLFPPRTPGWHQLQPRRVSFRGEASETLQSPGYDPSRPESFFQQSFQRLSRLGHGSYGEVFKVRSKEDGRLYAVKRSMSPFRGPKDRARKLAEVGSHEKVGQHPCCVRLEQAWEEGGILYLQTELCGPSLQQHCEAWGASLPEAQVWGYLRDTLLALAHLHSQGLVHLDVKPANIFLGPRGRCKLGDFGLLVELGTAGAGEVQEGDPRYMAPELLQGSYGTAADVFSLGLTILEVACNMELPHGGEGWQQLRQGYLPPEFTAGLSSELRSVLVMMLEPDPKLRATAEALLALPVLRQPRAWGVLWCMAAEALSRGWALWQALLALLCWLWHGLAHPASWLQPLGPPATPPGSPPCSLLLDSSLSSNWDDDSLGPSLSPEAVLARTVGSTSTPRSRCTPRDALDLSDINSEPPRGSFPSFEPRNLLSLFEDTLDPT
Protocol: as §1

[9] = molecular target: various enzymes (Homo sapiens, UniProt Q9UEW8); format: binding; conditions: compound 1 uM
Protocol: as §1

[10] = molecular target: T3, various enzymes (Homo sapiens, UniProt P36888); format: binding; design: other: FLT3(ITD); 1 uM; other: compound 1 uM; conditions: compound 1 uM
T3 sequence (P36888 1-993): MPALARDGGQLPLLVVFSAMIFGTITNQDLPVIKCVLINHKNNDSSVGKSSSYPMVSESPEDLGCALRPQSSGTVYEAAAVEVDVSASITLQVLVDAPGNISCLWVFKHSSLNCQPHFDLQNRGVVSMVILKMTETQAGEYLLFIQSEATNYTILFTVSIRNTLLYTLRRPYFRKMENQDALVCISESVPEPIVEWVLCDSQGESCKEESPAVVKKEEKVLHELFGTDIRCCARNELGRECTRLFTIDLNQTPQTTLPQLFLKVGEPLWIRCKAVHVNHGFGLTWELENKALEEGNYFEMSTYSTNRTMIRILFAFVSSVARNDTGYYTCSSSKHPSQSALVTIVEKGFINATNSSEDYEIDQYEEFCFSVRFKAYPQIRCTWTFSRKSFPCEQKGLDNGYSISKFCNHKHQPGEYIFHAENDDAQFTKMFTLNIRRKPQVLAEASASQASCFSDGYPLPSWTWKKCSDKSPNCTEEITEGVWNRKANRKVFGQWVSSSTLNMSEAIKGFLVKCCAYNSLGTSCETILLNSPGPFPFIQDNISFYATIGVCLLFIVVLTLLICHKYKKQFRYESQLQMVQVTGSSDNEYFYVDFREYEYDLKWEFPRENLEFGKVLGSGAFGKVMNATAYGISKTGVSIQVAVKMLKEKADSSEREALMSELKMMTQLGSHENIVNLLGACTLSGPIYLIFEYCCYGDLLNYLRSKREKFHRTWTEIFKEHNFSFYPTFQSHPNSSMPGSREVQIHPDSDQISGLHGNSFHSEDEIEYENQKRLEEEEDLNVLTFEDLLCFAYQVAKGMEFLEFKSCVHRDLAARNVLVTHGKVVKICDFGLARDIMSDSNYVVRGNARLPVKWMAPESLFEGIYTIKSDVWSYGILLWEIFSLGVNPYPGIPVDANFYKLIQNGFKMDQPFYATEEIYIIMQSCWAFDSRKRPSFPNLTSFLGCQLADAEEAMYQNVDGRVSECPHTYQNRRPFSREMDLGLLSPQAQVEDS
Protocol: as §1

[11] = molecular target: various enzymes (Homo sapiens, UniProt P00533, DELINS747-751S); format: binding; design: other: EGFR(L747-T751del, Sins); 1 uM; other: compound 1 uM; conditions: compound 1 uM
Protocol: as §1

various enzymes (Homo sapiens, UniProt O94921), sequence (O94921 whole entry): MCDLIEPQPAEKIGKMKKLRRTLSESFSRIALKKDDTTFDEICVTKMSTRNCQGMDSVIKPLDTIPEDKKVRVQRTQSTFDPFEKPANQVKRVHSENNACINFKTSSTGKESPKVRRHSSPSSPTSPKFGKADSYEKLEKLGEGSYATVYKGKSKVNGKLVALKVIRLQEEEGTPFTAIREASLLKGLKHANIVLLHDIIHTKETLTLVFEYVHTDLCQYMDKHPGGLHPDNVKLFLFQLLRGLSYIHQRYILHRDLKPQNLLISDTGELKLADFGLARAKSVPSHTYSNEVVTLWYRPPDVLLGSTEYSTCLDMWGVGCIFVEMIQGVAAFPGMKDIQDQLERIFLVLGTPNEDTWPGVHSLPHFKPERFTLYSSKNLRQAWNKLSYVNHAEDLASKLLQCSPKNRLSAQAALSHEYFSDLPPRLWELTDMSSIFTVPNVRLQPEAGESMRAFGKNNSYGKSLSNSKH
various enzymes (Homo sapiens, UniProt P45984), sequence (P45984 whole entry): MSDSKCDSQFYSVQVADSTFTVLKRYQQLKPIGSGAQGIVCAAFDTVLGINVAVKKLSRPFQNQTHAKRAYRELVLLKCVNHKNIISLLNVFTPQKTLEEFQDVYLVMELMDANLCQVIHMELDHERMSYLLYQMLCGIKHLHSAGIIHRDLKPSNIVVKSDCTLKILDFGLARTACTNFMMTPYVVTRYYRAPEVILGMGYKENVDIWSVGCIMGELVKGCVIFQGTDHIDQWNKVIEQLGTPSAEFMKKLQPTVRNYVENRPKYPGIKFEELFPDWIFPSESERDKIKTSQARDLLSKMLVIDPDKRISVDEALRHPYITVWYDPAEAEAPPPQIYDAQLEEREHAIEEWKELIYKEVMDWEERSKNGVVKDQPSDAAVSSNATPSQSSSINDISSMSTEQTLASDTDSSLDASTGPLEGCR
various enzymes (Homo sapiens, UniProt O94804), sequence (O94804 whole entry): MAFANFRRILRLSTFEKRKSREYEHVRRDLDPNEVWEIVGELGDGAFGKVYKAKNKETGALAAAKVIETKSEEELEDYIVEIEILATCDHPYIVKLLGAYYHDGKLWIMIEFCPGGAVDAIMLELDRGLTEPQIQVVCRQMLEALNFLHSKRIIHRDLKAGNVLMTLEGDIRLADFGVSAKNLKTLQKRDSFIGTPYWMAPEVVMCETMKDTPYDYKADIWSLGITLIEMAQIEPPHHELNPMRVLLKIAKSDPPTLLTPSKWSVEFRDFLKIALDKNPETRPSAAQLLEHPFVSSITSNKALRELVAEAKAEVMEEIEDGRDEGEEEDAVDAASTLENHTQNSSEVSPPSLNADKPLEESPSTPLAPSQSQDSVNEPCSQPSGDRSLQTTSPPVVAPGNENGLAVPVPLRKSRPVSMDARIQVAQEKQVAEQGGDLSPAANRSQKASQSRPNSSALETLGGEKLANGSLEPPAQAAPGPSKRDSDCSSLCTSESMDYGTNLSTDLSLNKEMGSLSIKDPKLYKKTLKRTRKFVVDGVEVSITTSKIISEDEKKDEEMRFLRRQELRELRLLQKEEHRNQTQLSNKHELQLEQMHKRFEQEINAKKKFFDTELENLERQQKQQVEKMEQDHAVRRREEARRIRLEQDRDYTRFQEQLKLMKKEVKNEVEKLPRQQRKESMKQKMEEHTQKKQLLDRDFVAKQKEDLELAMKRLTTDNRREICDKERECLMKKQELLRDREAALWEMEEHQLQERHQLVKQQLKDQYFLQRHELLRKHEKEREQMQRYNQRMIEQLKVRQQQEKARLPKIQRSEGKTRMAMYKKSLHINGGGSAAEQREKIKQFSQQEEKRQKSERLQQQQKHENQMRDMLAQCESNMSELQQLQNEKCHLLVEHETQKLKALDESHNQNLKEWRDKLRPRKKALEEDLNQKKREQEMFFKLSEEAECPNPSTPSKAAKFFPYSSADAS
various enzymes (Homo sapiens, UniProt Q13705), sequence (Q13705 19-512): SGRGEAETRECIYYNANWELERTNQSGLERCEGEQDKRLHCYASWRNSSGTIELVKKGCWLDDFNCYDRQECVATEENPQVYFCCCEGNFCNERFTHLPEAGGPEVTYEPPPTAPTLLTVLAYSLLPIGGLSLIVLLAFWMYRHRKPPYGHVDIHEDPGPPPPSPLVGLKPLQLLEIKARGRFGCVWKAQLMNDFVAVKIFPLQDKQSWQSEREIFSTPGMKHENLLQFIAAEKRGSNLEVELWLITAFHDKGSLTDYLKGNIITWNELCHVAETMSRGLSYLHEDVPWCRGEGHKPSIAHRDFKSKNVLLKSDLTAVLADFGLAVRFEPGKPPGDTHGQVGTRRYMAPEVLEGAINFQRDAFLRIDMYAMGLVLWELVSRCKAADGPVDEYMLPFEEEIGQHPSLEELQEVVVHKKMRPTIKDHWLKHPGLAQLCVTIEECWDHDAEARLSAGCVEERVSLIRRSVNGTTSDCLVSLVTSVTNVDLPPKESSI
various enzymes (Homo sapiens, UniProt O15075), sequence (O15075 whole entry): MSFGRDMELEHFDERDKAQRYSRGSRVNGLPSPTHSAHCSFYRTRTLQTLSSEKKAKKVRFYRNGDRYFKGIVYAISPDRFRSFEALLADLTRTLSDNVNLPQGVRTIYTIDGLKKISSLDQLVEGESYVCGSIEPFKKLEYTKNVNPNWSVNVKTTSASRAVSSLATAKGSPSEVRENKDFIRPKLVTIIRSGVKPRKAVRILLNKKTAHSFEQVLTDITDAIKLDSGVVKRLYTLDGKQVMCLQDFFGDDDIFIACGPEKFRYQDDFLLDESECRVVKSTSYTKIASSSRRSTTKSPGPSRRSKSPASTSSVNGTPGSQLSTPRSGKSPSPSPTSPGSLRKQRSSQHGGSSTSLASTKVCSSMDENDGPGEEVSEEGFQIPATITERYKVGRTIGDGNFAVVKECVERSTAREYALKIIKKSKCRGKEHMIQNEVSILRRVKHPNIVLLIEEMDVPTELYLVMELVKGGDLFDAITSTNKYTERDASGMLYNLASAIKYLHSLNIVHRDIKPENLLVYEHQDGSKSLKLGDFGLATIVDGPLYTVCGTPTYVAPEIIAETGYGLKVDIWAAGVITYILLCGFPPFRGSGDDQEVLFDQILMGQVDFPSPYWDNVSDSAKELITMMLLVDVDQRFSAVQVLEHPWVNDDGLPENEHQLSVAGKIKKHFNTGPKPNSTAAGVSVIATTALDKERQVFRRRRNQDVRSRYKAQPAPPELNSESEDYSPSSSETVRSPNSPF

CN1Cc2nn(C)cc2-c2cnc3[nH]cc(c3c2)-c2cnn(c2)CCCC1=O [Compound 41, (Z)-31,5-dimethyl-11H,21H,31H-5-aza-2(3,5)-pyrrolo[2,3-b]pyridina-1(4,1),3(4,3)-dipyrazolacyclononaphan-6-one]
Ambit profiling [1]: 1.1
Ambit profiling [2]: 74
Ambit profiling [3]: 4.3
Ambit profiling [4]: 69
Ambit profiling [5]: 65
Ambit profiling [6]: 65

CC(C)N1Cc2nn(C)cc2-c2cnc3[nH]cc(c3c2)-c2cn(nc2C(F)(F)F)CCCC1=O [Compound 45, (Z)-5-isopropyl-31-methyl-13-(trifluoromethyl)-11H,21H,31H-5-aza-2(3,5)-pyrrolo[2,3-b]pyridina-1(4,1),3(4,3)-dipyrazolacyclononaphan-6-one]
Ambit profiling: EGFR(L747-E749del, A750P) ([7]; compound 1 uM): 10
Ambit profiling: PKMYT1 [8]: 92
Ambit profiling: STK39 [9]: 98
Ambit profiling: FLT3(ITD) [10]: 0.3
Ambit profiling: EGFR(L747-T751del, Sins) [11]: 31

CN1Cc2nn(C)c(C#N)c2-c2cnc3[nH]cc(c3c2)-c2cn(nc2C(F)(F)F)CCCC1=O [Compound 48, (Z)-31,5-dimethyl-6-oxo-13-(trifluoromethyl)-11H,21H,31H-5-aza-2(3,5)-pyrrolo[2,3-b]pyridina-1(4,1),3(4,3)-dipyrazolacyclononaphane-35-carbonitrile]
Ambit profiling [1]: 8.1
Ambit profiling [2]: 52
Ambit profiling [3]: 100
Ambit profiling [4]: 91
Ambit profiling [5]: 92
Ambit profiling [6]: 98

COc1c2c(nn1C)CN(C(C)C)C(=O)CCCn1cc(c(C(F)(F)F)n1)-c1c[nH]c3ncc-2cc13 [Compound 50, (Z)-5-isopropyl-35-methoxy-31-methyl-13-(trifluoromethyl)-11H,21H,31H-5-aza-2(3,5)-pyrrolo[2,3-b]pyridina-1(4,1),3(4,3)-dipyrazolacyclononaphan-6-one]
Ambit profiling: EGFR(L747-E749del, A750P) [7]: 3.1
Ambit profiling: PKMYT1 [8]: 86
Ambit profiling: STK39 [9]: 100
Ambit profiling: FLT3(ITD) [10]: 0.35
Ambit profiling: EGFR(L747-T751del, Sins) [11]: 22
